This note sets out measurements from patent US10953100B2, “Compounds and therapeutic uses thereof” (priority 2015, dated 2021).

Molecules are shown by their SMILES.

The experiment deals with Anti-alpha galactosyl IgG antibody. As to the kind of experiment: ELISA assay: streptavidin-captured biotin compound, binding of anti-alpha galactosyl IgG antibody. Further details: species or system human. Conditions: geometric mean with standard error in brackets; streptavidin plate, anti-alpha galactosyl IgG 0.5 μg/mL; read-out: Concentration at half maximal binding. How it is done:
Compounds containing F (representing a carbohydrate molecule capable of binding to a human anti-alpha-galactosyl antibody) and L (as biotin) were assayed for binding at both ends of the compound using an enzyme-linked immunosorbent assay (ELISA). Streptavidin-coated plates captured biotin to the surface of the plate and the binding of anti-alpha galactosyl antibodies to the alpha-galactosyl moiety was reported by a secondary antibody labelled with HRP (Horse Radish Peroxidase).
Compounds were titrated 1.5 fold from a top dose of 50 nM in phosphate buffered saline (PBS) (Sigma D8537)+0.025% DMSO (Dimethyl Sulphoxide, Sigma D8418). Streptavidin immobilizer 96-well plates (nunc 436014) were coated with 100 μL of compound at room temperature for 2 hours shaking at 500 rpm. Plates were washed with 2×200 μL PBS-T (PBS with 0.05% Tween 20 (Sigma P9416)) and 1×200 μL PBS-T with a 5 minute incubation shaking at room temperature, prior to being blocked for 1 hour at room temperature with 1% Bovine Serum Albumin (BSA, Sigma A2153) in PBS-T. After removing the blocking buffer, 50 μL of Anti-alpha galactosyl IgG antibody (Anti-alpha-galactosyl antibody was purified from human IVIG (Gammagard) by affinity purification using an alpha-galactosyl-HSA (Human Serum Albumin) sepharose column by Rockland Immunochemicals Inc.) at 0.5 μg/mL in PBS-T+1% BSA and incubated shaking at room temperature for 1 hour.
Plates were washed 2×200 μL PBS-T and 3×200 μL PBS-T with a 5 minute incubation, shaking at room temperature before the addition of 50 μL 1:5000 Goat Anti-Human IgG-HRP (horseradish peroxidase) conjugate (Abcam ab97175). The plates were incubated shaking at room temperature for 1 hour before a final wash of 2×200 μL PBS-T and 3×200 μl PBS-T with a 5 minute incubation shaking at room temperature. 100 μL TMB buffer (3,3′,5,5′-tetramethylbenzidine, a chromogenic substrate for horseradish peroxidase) (Pierce 34021) was added to the plate and allowed to develop for 5-10 minutes before the samples were quenched with 50 μL 2M sulfuric acid (Sigma 258105). The absorbance was read at 450 nm on an Envision plate reader (Perkin Elmer). Results from wells (duplicate) were averaged and the 50% binding affinity calculated.
The concentration at which half-maximal binding is achieved is reported as a geometric mean with standard error in brackets. The number of independent experiments is also reported. In order to achieve a signal both ends of the molecule are required to bind (biotin to streptavidin and alpha-galactosyl to anti-alpha galactosyl antibodies) simultaneously.
On the technique in general: ELISA stands for enzyme-linked immunosorbent assay.

For `CC(=O)NC1C(OCCCNC(=O)CCCNC(=O)CCOCCOCCOCCOCCNC(=O)COc2cc(OCC(=O)NCCOCCOCCOCCOCCC(=O)NCCCC(=O)NCCCOC3OC(CO)C(OC4OC(CO)C(O)C(OC5OC(CO)C(O)C(O)C5O)C4O)C(O)C3NC(C)=O)cc(-c3cc(OCC(=O)NCCOCCOCCOCCOCCC(=O)NCCCC(=O)NCCCOC4OC(CO)C(OC5OC(CO)C(O)C(OC6OC(CO)C(O)C(O)C6O)C5O)C(O)C4NC(C)=O)cc(C(=O)NCCNC(=O)CCCCC4SCC5NC(=O)NC54)c3)c2)OC(CO)C(OC2OC(CO)C(O)C(OC3OC(CO)C(O)C(O)C3O)C2O)C1O` (stereo not shown) [Example 59], the EC50 stood at 21.3 nM.

As to `CC(=O)N[C@H]1[C@H](OCCCNC(=O)COc2cccc(CNC(=O)CCCCC(=O)NCCNC(=O)CCCC[C@@H]3SC[C@@H]4NC(=O)N[C@@H]43)c2)O[C@H](CO)[C@@H](O[C@@H]2O[C@H](CO)[C@H](O)[C@H](O[C@H]3O[C@H](CO)[C@H](O)[C@H](O)[C@H]3O)[C@H]2O)[C@@H]1O` [Example 12, N^1-(3-(2-((3-(((2R,3R,4R,5S,6R)-3-Acetamido-5-(((2S,3R,4S,5S,6R)-3,5-dihydroxy-6-(hydroxymethyl)-4-(((2R,3R,4S,5R,6R)-3,4,5-trihydroxy-6-(hydroxymethyl)tetrahydro-2H-pyran-2-yl)oxy)tetrahydro-2H-pyran-2-yl)oxy)-4-hydroxy-6-(hydroxymethyl)tetrahydro-2H-pyran-2-yl)oxy)propyl)amino)-2-oxoethoxy)benzyl)-N6-(2-(5-((3aS,4S,6aR)-2-oxohexahydro-1H-thieno[3,4-d]imidazol-4-yl)pentanamido)ethyl)adipamide], the EC50 worked out at 37.3 nM.

As to `CC(=O)N[C@H]1[C@H](OCCCNC(=O)COc2cccc(-c3cc(OCC(=O)NCCCO[C@@H]4O[C@H](CO)[C@@H](O[C@@H]5O[C@H](CO)[C@H](O)[C@H](O[C@H]6O[C@H](CO)[C@H](O)[C@H](O)[C@H]6O)[C@H]5O)[C@H](O)[C@H]4NC(C)=O)cc(C(=O)NCCNC(=O)CCCC[C@@H]4SC[C@@H]5NC(=O)N[C@@H]54)c3)c2)O[C@H](CO)[C@@H](O[C@@H]2O[C@H](CO)[C@H](O)[C@H](O[C@H]3O[C@H](CO)[C@H](O)[C@H](O)[C@H]3O)[C@H]2O)[C@@H]1O` [Example 14], the EC50 came to 11.9 nM.

For `CC(=O)NC1C(OCCCNC(=O)COc2ccc(-c3cc(OCC(=O)NCCCOC4OC(CO)C(OC5OC(CO)C(O)C(OC6OC(CO)C(O)C(O)C6O)C5O)C(O)C4NC(C)=O)cc(C(=O)NCCNC(=O)CCOCCOCCOCCOCCOCCOCCOCCOCCOCCOCCOCCOCCNC(=O)CCCCC4SCC5NC(=O)NC54)c3)cc2)OC(CO)C(OC2OC(CO)C(O)C(OC3OC(CO)C(O)C(O)C3O)C2O)C1O` (stereo not shown) [Example 15], the EC50 turned out to be 11.5 nM.

Take `CC(=O)NC1C(OCCCNC(=O)COc2cccc(C(=O)NCCNC(=O)CCOCCOCCOCCOCCOCCOCCOCCOCCOCCOCCOCCOCCNC(=O)CCCCC3SCC4NC(=O)NC43)c2)OC(CO)C(OC2OC(CO)C(O)C(OC3OC(CO)C(O)C(O)C3O)C2O)C1O` (stereo not shown) [Example 3]: the EC50 is 15 nM.

As for `CC(=O)N[C@H]1[C@H](OCCCNC(=O)COc2cc(OCC(=O)NCCCO[C@@H]3O[C@H](CO)[C@@H](O[C@@H]4O[C@H](CO)[C@H](O)[C@H](O[C@H]5O[C@H](CO)[C@H](O)[C@H](O)[C@H]5O)[C@H]4O)[C@H](O)[C@H]3NC(C)=O)cc(-c3cc(C(=O)NCCNC(=O)CCCC[C@@H]4SC[C@@H]5NC(=O)N[C@@H]54)c(OCC(=O)NCCCO[C@@H]4O[C@H](CO)[C@@H](O[C@@H]5O[C@H](CO)[C@H](O)[C@H](O[C@H]6O[C@H](CO)[C@H](O)[C@H](O)[C@H]6O)[C@H]5O)[C@H](O)[C@H]4NC(C)=O)cc3OCC(=O)NCCCO[C@@H]3O[C@H](CO)[C@@H](O[C@@H]4O[C@H](CO)[C@H](O)[C@H](O[C@H]5O[C@H](CO)[C@H](O)[C@H](O)[C@H]5O)[C@H]4O)[C@H](O)[C@H]3NC(C)=O)c2)O[C@H](CO)[C@@H](O[C@@H]2O[C@H](CO)[C@H](O)[C@H](O[C@H]3O[C@H](CO)[C@H](O)[C@H](O)[C@H]3O)[C@H]2O)[C@@H]1O` [Example 9], the EC50 amounted to 10.1 nM.

With `CC(=O)N[C@H]1[C@H](OCCCNC(=O)COc2cc(OCC(=O)NCCCO[C@@H]3O[C@H](CO)[C@@H](O[C@@H]4O[C@H](CO)[C@H](O)[C@H](O[C@H]5O[C@H](CO)[C@H](O)[C@H](O)[C@H]5O)[C@H]4O)[C@H](O)[C@H]3NC(C)=O)cc(C(=O)NCCNC(=O)CCCC[C@@H]3SC[C@@H]4NC(=O)N[C@@H]43)c2)O[C@H](CO)[C@@H](O[C@@H]2O[C@H](CO)[C@H](O)[C@H](O[C@H]3O[C@H](CO)[C@H](O)[C@H](O)[C@H]3O)[C@H]2O)[C@@H]1O` [Example 5], the EC50 is 9.1 nM.

As for `CC(=O)N[C@H]1[C@H](OCCCNC(=O)COc2cc(C(=O)NCCNC(=O)CCCC[C@@H]3SC[C@@H]4NC(=O)N[C@@H]43)nc3ccccc23)O[C@H](CO)[C@@H](O[C@@H]2O[C@H](CO)[C@H](O)[C@H](O[C@H]3O[C@H](CO)[C@H](O)[C@H](O)[C@H]3O)[C@H]2O)[C@@H]1O` [Example 10, 4-(2-((3-(((2R,3R,4R,5S,6R)-3-Acetamido-5-(((2S,3R,4S,5S,6R)-3,5-dihydroxy-6-(hydroxymethyl)-4-(((2R,3R,4S,5R,6R)-3,4,5-trihydroxy-6-(hydroxymethyl)tetrahydro-2H-pyran-2-yl)oxy)tetrahydro-2H-pyran-2-yl)oxy)-4-hydroxy-6-(hydroxymethyl)tetrahydro-2H-pyran-2-yl)oxy)propyl)amino)-2-oxoethoxy)-N-(2-(5-((3aS,4S,6aR)-2-oxohexahydro-1H-thieno[3,4-d]imidazol-4-yl)pentanamido)ethyl)quinoline-2-carboxamide], the EC50 is 25.7 nM.

`CC(=O)NC1C(OCCCNC(=O)COc2cc(OCC(=O)NCCCOC3OC(CO)C(OC4OC(CO)C(O)C(OC5OC(CO)C(O)C(O)C5O)C4O)C(O)C3NC(C)=O)cc(-c3cc(OCC(=O)NCCCOC4OC(CO)C(OC5OC(CO)C(O)C(OC6OC(CO)C(O)C(O)C6O)C5O)C(O)C4NC(C)=O)cc(C(=O)NCCNC(=O)CCOCCOCCOCCOCCOCCOCCOCCOCCOCCOCCOCCOCCNC(=O)CCCCC4SCC5NC(=O)NC54)c3)c2)OC(CO)C(OC2OC(CO)C(O)C(OC3OC(CO)C(O)C(O)C3O)C2O)C1O` (stereo not shown) [Example 16]: the EC50 turned out to be 8.4 nM.

As to `CC(=O)NC1C(O)[C@H](O[C@@H]2OC(CO)[C@H](O)C(O[C@H]3OC(CO)[C@H](O)C(O)C3O)C2O)C(CO)O[C@H]1OCCCNC(=O)CCCNC(=O)COc1cc(OCC(=O)NCCCC(=O)NCCCO[C@@H]2OC(CO)[C@@H](O[C@@H]3OC(CO)[C@H](O)C(O[C@H]4OC(CO)[C@H](O)C(O)C4O)C3O)C(O)C2NC(C)=O)cc(-c2cc(OCC(=O)NCCCC(=O)NCCCO[C@@H]3OC(CO)[C@@H](O[C@@H]4OC(CO)[C@H](O)C(O[C@H]5OC(CO)[C@H](O)C(O)C5O)C4O)C(O)C3NC(C)=O)cc(C(=O)NCCNC(=O)CCCC[C@@H]3SC[C@@H]4NC(=O)N[C@@H]43)c2)c1` (stereo partly shown) [Example 60], the EC50 is 24.1 nM.

As for `CC(=O)NC1C(OCCCNC(=O)CCOCCOCCOCCOCCNC(=O)COc2ccc(-c3cc(OCC(=O)NCCOCCOCCOCCOCCC(=O)NCCCOC4OC(CO)C(OC5OC(CO)C(O)C(OC6OC(CO)C(O)C(O)C6O)C5O)C(O)C4NC(C)=O)cc(C(=O)NCCNC(=O)CCCCC4SCC5NC(=O)NC54)c3)cc2)OC(CO)C(OC2OC(CO)C(O)C(OC3OC(CO)C(O)C(O)C3O)C2O)C1O` (stereo not shown) [Example 20], the EC50 was found to be 14.8 nM.

In the case of `CC(=O)N[C@H]1[C@H](OCCCNC(=O)CCOCCOCCOCCOCCNC(=O)COc2ccc(-c3cccc(C(=O)NCCNC(=O)CCOCCOCCOCCOCCOCCOCCOCCOCCOCCOCCOCCOCCNC(=O)CCCC[C@@H]4SC[C@@H]5NC(=O)N[C@@H]54)c3)cc2)O[C@H](CO)[C@@H](O[C@@H]2O[C@H](CO)[C@H](O)[C@H](O[C@H]3O[C@H](CO)[C@H](O)[C@H](O)[C@H]3O)[C@H]2O)[C@@H]1O` [Example 52], the EC50 worked out at 34.9 nM.

In the case of `CC(=O)NC1C(OCCCNC(=O)CCOCCOCCOCCOCCOCCOCCOCCOCCOCCOCCOCCOCCNC(=O)COc2ccc(-c3cc(OCC(=O)NCCOCCOCCOCCOCCOCCOCCOCCOCCOCCOCCOCCOCCC(=O)NCCCOC4OC(CO)C(OC5OC(CO)C(O)C(OC6OC(CO)C(O)C(O)C6O)C5O)C(O)C4NC(C)=O)cc(C(=O)NCCNC(=O)CCOCCOCCOCCOCCOCCOCCOCCOCCOCCOCCOCCOCCNC(=O)CCCCC4SCC5NC(=O)NC54)c3)cc2)OC(CO)C(OC2OC(CO)C(O)C(OC3OC(CO)C(O)C(O)C3O)C2O)C1O` (stereo not shown) [Example 48], the EC50 is 25 nM.
